# Results: patent US20250205372A1, “RADIOPHARMACEUTICAL COMPOSITIONS, SYNTHETIC METHODS, AND METHODS OF TREATMENT” (The Research Foundation for The State University of New York, priority 2022, published 2025)
# Assays:
# Assay type in all cases: physicochemical
# [1] = Variable temperature mass spectrometry (VTMS): binding of the first second sphere water; conditions: gas phase
# Experimental: VTMS and CIVP: All experiments were carried out in a home-built quadrupole time-of-flight mass spectrometer described elsewhere (Waller, 2019). Briefly, the complexes were introduced into the gas phase via an electrospray ionization (ESI) source purged with dry air using PEEK tubing of 50 μm inner diameter. All samples were diluted to 50-100 μM in 50/50 acetonitrile/water from 500 μM stock solutions and an optimized flow rate of 0.6 μL/min was employed. The ESI voltages were typically 2050-2080 V, low enough to prevent sample degradation while still ensuring steady signal. Once generated, the ions were introduced into a vacuum system and stored in a room temperature […] trap. Ions were extracted from this trap and mass selected by a quadrupole mass filter (Extrel), then guided into a cryogenically cooled ion trap capable of operating in a temperature range of 310 K-3 K. For Variable temperature mass spectrometry (VTMS) measurements (Racow, 2019), a mixture of water and helium was introduced via a pulsed valve allowing the formation of hydrated complexes, if thermodynamically feasible. A fraction of ions was then extracted, at 10 Hz, into a reflectron time-of-flight (TOF) mass spectrometer to analyze the relative intensities of the resulting hydrates. The trap was cooled down from 310 K at a rate of ˜1 K/min and mass spectra were collected by summing 1000 scans at 10 K intervals in the cooling down period. The partial pressure of water was maintained between 4×10−8 to 2×10^−7 Torr as detected by a residual gas analyzer (Extorr). Vibrational spectra were recorded using a method known as Cryogenic Ion Vibrational Predissociation (CIVP) spectroscopy as described previously (Yang 2019). Briefly, a mixture of N2 and helium was seeded into the cryogenic ion trap, encouraging the formation of nitrogen adducts (so-called “tags”) typically between 45 K-48 K. Tagged complexes were extracted into the TOF and intersected by a tunable infrared laser pulse from a Nd:YAG pumped OPO/OPA system (LaserVision). The tagged ions absorb a single photon when the wavelength is resonant with a vibrational transition, resulting in the desorption of the tag from the ions. Fragment ion yields were subsequently quantified by a reflectron mass spectrometer. The ratio of fragment to tagged ions, corrected for the laser power, at each wavelength thus yields a linear absorption spectrum of the ions of interest that can be analyzed in the same way as atypical FTIR spectrum.
# Data Analysis and Detailed Discussion. The variable temperature mass spectra and corresponding speciation curves of the protonated tripeptide+NOTA (4) and the Ga-tripeptide-NOTA complex (^natGa-4) are shown in FIGS. 71-75. At the highest temperature shown in both figures, no water adduct is observed. […] Similar values were found for the metal-free complex, further confirming that only second sphere hydration events were observed.
# [2] = Cleavage assay for cold complexes: pH-dependent autolytic cleavage monitored by LCMS/analytical HPLC; conditions: 80° C. and pH 4.5
# Experimental: Cleavage of the cold model complexes was observed over a range of physiological pH conditions, including pH values of 4.5, 5.5, 6.5, and 7.5. Aqueous buffer solutions were prepared using 10 mM sodium acetate (pH 4.5 and 5.5) or 10 mM HEPES (pH 6.5 and 7.5), which were subsequently adjusted to the desired pH using NaOH and/or HCl. An aliquot of the complex was placed in an aqueous solution of the desired pH and incubated for 48 hours at 80° C., monitored regularly via LCMS.
# [3] = Temperature-dependent autolytic release from ^67Ga-radiolabeled model peptides (radioHPLC)
# Experimental: ^67Ga-citrate was purchased from Jubilant Radiopharma at an average specific activity of 205.0 MBq/mL. The ^67Ga-citrate solution was first converted to ^67GaCl3 using an established solid-phase extraction protocol (Pandy, 2021). The resulting average specific activity of the obtained ^67Ga-chloride solution used for solution radio-labelling was 80.5 MBq/mL. For radio-labeling of NOTA-based model peptides or compound 10, a 20 μL aliquot containing 4.5 MBq of ^67GaCl3 was added to the conjugate (10 nmol, 300 μL) in 10 mM of sodium acetate (NaOAc) buffer. The pH of the solution was adjusted to 5.0. Radiolabeling was completed after 20 minutes at room temperature. The radiolabeled conjugates were characterized with radio-HPLC.
# [4] = Quantitation of the ^68Ga(8) product released from TG-10 resin over time
substance,measurement,setting,value
"2,2′-(7-(2-((1-1-((2-(((S)-1-amino-3-(1H-indol-3-yl)-1-oxopropan-2-yl)amino)-2-oxoethyl)amino)-3-hydroxy-1-oxopropan-2-yl)amino)-2-oxoethyl)-1,4,7-triazonane-1,4-diyl)diacetic acid [Compound 4]",ΔG (ΔG^298) for the binding of the first second sphere water,[1],-6.74 ± 0.19 kcal/mol
same,ΔH for the binding of the first second sphere water,[1],-13.2 ± 0.12 kcal/mol
same,ΔS for the binding of the first second sphere water,[1],−91.3 +/− 2.2 J/mol K
"(S)-2,2′-(7-(2-((2-((2-((I-amino-3-(1H-indol-3-yl)-1-oxopropan-2-yl)amino)-2-oxoethyl)amino)-2-oxoethyl)amino)-2-oxoethyl)-1,4,7-triazonane-1,4-diyl)diacetic acid [Compound 3]",autolytic release (analytical HPLC chromatograms),[2],no autolytic release
"^67Gallium 2,2′,2″-(10-(2-((1-1-((2-(((S)-1-amino-3-(H-indol-3-yl)-1-oxopropan-2-yl)amino)-2-oxoethyl)amino)-3-hydroxy-1-oxopropan-2-yl)amino)-2-oxoethyl)-1,4,7,10-tetraazacyclododecane-1,4,7-triyl)triacetate [^67Ga-5]",autolytic release (analytical radioHPLC chromatograms),[3]; 25° C.,no autolytic release
same,autolytic release (analytical radioHPLC chromatograms),[3]; 37° C.,no autolytic release
same,autolytic release (analytical radioHPLC chromatograms),[3]; 80° C.,no autolytic release
"^67Gallium (S)-2,2′-(7-(2-((2-((2-((I-amino-3-(1H-indol-3-yl)-1-oxopropan-2-yl)amino)-2-oxoethyl)amino)-2-oxoethyl)amino)-2-oxoethyl)-1,4,7-triazonane-1,4-diyl)diacetate [^67Ga-3]",autolytic release (analytical radioHPLC chromatograms),[3]; 25° C.,no autolytic release
same,autolytic release (analytical radioHPLC chromatograms),[3]; 37° C.,lack of fast autolytic release
"^68Gallium (((1S)-1-carboxy-5-(3-(naphthalen-2-yl)-2-((1r,4S)-4-((6-oxo-6-((4-((1,4,7-tris(carboxymethyl)-1,4,7-triazonan-2-yl)methyl)phenyl)amino)hexanamido)methyl)cyclohexane-1-carboxamido)propanamido)pentyl)carbamoyl)-L-glutamic acid triacetate [^68Ga(8)]",Activity released per time,"[4]; released from TG-10, 10 min",14.2 ± 1.57%
same,Cumulative released activity,"[4]; released from TG-10, 10 min",14.2 ± 1.57%
same,Activity released per time,"[4]; released from TG-10, 20 min",17.9 ± 0.97%
same,Cumulative released activity,"[4]; released from TG-10, 20 min",32.1 ± 0.60%
same,Activity released per time,"[4]; released from TG-10, 30 min",18.9 ± 0.61%
same,Cumulative released activity,"[4]; released from TG-10, 30 min",50.9 ± 1.21%
same,Activity released per time,"[4]; released from TG-10, 60 min",15.4 ± 0.85%
same,Cumulative released activity,"[4]; released from TG-10, 60 min",66.3 ± 0.36%
same,Activity released per time,"[4]; released from TG-10, 90 min",11.5 ± 0.84%
same,Cumulative released activity,"[4]; released from TG-10, 90 min",77.8 ± 1.20%
same,Activity released per time,"[4]; released from TG-10, 120 min",9.2 ± 1.56%
same,Cumulative released activity,"[4]; released from TG-10, 120 min",87.0 ± 2.76%
same,Cumulative released activity,"[4]; released from TG-10, last line of table, time not given",88.0%
"^natCopper 2,2′,2-(10-(2-(((R)-1-((2-(((S)-1-amino-3-(1H-indol-3-yl)-1-oxopropan-2-yl)amino)-2-oxoethyl)amino)-3-hydroxy-1-oxopropan-2-yl)amino)-2-oxoethyl)-1,4,7,10-tetraazacyclododecane-1,4,7-triyl)triacetate [^natCu-5]",autolytic release (analytical HPLC chromatograms),[2],no autolytic release
"^natCopper 2,2′-(7-(2-((1-1-((2-(((S)-1-amino-3-(1H-indol-3-yl)-1-oxopropan-2-yl)amino)-2-oxoethyl)amino)-3-hydroxy-1-oxopropan-2-yl)amino)-2-oxoethyl)-1,4,7-triazonane-1,4-diyl)diacetate [^natCu-4]",autolytic release (analytical HPLC chromatograms),[2],no autolytic release
"^natCopper (S)-2,2′-(7-(2-((2-((2-((1-amino-3-(1H-indol-3-yl)-1-oxopropan-2-yl)amino)-2-oxoethyl)amino)-2-oxoethyl)amino)-2-oxoethyl)-1,4,7-triazonane-1,4-diyl)diacetate [^natCu-3]",autolytic release (analytical HPLC chromatograms),[2],no autolytic release
"^natGallium 2,2′,2″-(10-(2-((1-1-((2-(((S)-1-amino-3-(1H-indol-3-yl)-1-oxopropan-2-yl)amino)-2-oxoethyl)amino)-3-hydroxy-1-oxopropan-2-yl)amino)-2-oxoethyl)-1,4,7,10-tetraazacyclododecane-1,4,7-triyl)triacetate [^natGa-5]",autolytic release (analytical HPLC chromatograms),[2],no autolytic release
"^natGallium 2,2′-(7-(2-((1-1-((2-(((S)-1-amino-3-(1H-indol-3-yl)-1-oxopropan-2-yl)amino)-2-oxoethyl)amino)-3-hydroxy-1-oxopropan-2-yl)amino)-2-oxoethyl)-1,4,7-triazonane-1,4-diyl)diacetate [^natGa-4]",ΔG (ΔG^298) for the binding of the first second sphere water,[1],-7.19 ± 0.645 kcal/mol
same,ΔH for the binding of the first second sphere water,[1],-11.7 ± 0.621 kcal/mol
same,ΔS for the binding of the first second sphere water,[1],−62.9 +/− 17.5 J/mol K
"^natScandium 2,2′,2″-(10-(2-((1-1-((2-(((S)-1-amino-3-(1H-indol-3-yl)-1-oxopropan-2-yl)amino)-2-oxoethyl)amino)-3-hydroxy-1-oxopropan-2-yl)amino)-2-oxoethyl)-1,4,7,10-tetraazacyclododecane-1,4,7-triyl)triacetate [^natSc-5]",autolytic release (analytical HPLC chromatograms),[2],no autolytic release
